Columns and labels:
[1] = tested on: cell surface CEA expression of colorectal cancer organoid lines; test: Wnt/β-catenin pathway inhibition assay: cell surface CEA expression of PDOs by flow cytometry; format: cell-based, human; details: PDOs with mixed CEA expression; 10 μM for 3 days; FACS
Experimental: Two PDO lines with mixed CEA expression were treated with an inhibitor of WNT signalling: the tankyrase inhibitor compound 21 which inhibits the downstream WNT/β-catenin pathway by stabilizing the β-catenin destruction complex (Elliott et al., Med Chem Comm. 2015; 6(9):1687-92; Mariotti et al., Br J Pharmacol. 2017; 174(24):4611-36).
Cell lines were harvested using enzyme-free Cell Dissociation Buffer (Thermo Fisher) and PDOs with TrypLE Express (Gibco). 2×10^5 cells were stained with 20 nM of the human anti-human CEA antibody CH1A1A (Roche) and 25 ug/ml of the R-Phycoerythrin conjugated secondary antibody AffiniPure F(ab′)2 Fragment Goat Anti-Human IgG, Fcγ Fragment Specific (Stratech). DRAQ7 (Biostatus) staining was included for dead cell exclusion. CEA expression was analysed on a Sony SH800 flow cytometer. Gate boundaries were set at the trough between high and low CEA populations in PDOs with mixed CEA expression and identical gates were used across all samples. The percentage of CEAhi and CEAlo populations and mean fluorescence intensities (MFI) were calculated for each PDO.
10^5 PDO cells/well were seeded in 12 well plates and allowed to attach overnight. […] Cells were harvested using TrypLE Express, stained for CEA with the CH1A1A primary antibody and the R-Phycoerythrin conjugated secondary antibody and analyzed by FACS as described above.

[2] = tested on: patient derived colorectal cancer organoids (PDOs); test: allogeneic CD8 T cell co-culture assay with patient derived colorectal cancer organoids, GFP confluence growth assessment; format: cell-based, human; details: CEAhi PDO CRC-01; E:T 2:1; 20 nM
Experimental: In order to assess the sensitivity of patient-derived colorectal cancer organoids (PDOs) to cibisatamab immunotherapy, eight patient derived colorectal cancer organoid lines with various cell surface CEA expression levels were generated and treated with cibisatamab (20 nM) or an untargeted control antibody (20 nM) during 10 days of co-culture with allogeneic CD8 T cells. CD8 T cells were isolated from allogeneic healthy donor peripheral blood mononuclear cells (PBMCs) by magnetic bead sorting and expanded in vitro with IL2 and CD3/CD28 beads for 7-14 days. GFP-tagged CRC PDO cells were then seeded in 96 well plates, T cells were added the following day and the co-cultures were imaged every 2-3 days on an automated 96 well plate fluorescence microscope. […] Co-culture with CD8 T cells without any antibody was included as a further control to enable the identification of alloreactive donor T cells. […]
PDOs were harvested with TrypLE Express and neutralised with DMEM/F12 Ham medium (Sigma Aldrich) with 10% FBS. Cells were filtered through a 70 μm filter, counted and resuspended in phenol-red free RPMI medium (Thermo Fisher) supplemented with 10% FBS (Biosera), 1× Glutamax and 100 units penicillin-streptomycin. […]
The GFP confluence was quantified every 48h-72h over a 10-day period using the GFP confluence application on the Celigo Imaging Cytometer (Nexcelom Bioscience). […]

| Molecule | effect on CEA expression and CEAhi subpopulation [1] | growth suppression activity of T cells in the presence of antibody [2] |
| --- | --- | --- |
| Cc1cc(-c2ncc(CC(=O)Nc3ccc(-c4cnccn4)cn3)cc2C)ccn1 [LGK-974] | increase in CEA expression and the CEAhi subpopulation |  |
| DP47-TCB: untargeted antibody used as a negative control [reference compound] |  | no activity |

— patent US20220017623A1, “TREATMENT OF CANCER USING A CEA CD3 BISPECIFIC ANTIBODY AND A WNT SIGNALING INHIBITOR” (Hoffmann-La Roche Inc., priority 2019, published 2022)
